Data from patent publication US20230150974A1 (Foghorn Therapeutics Inc., priority 2020, published 2023).

What was measured:
HiBit-BRG1 = target: T1, HiBit-BRG1 (Homo sapiens, UniProt P51532); assay: HiBit-BRG1 cell-based degradation assay (Nano-Glo HiBiT Lytic Detection); conditions: HeLa cells expressing HiBit-BRG1 and LgBit, 24 h; for DC50: read-out: BRG1 HiBit Degradation IC50; for Dmax: read-out: BRG1 HiBit Degradation Maximum (%)
T1 construct: expressed in transfected cells
Description: (§1) Procedure: A stable HeLa cell line expressing HiBiT-BRM was generated. On day 0, 5000 cells were seeded in 40 μL of media into each well of 384-well cell culture plates. […] Subsequently plates were incubated for 24 h in a standard tissue culture incubator and equilibrated at room temperature for 15 minutes. Nano-Glo HiBiT Lytic Detection System (Promega N3050) reagent was freshly prepared and 20 ul was added to each well. Upon addition of this LgBit-containing reagent, the HiBiT and LgBiT proteins associate to form the luminescent NanoBiT luciferase. The plates were shaken for 10 minutes at room temperature and the bioluminescence read using an EnVision plate reader (PerkinElmer).
For measurement of BRG1 degradation, a stable HeLa cell line expressing HiBit-BRG1 and LgBit was generated. The same protocol as above was then followed.
(§2) The degradation % was calculated using the following formula: % degradation=100%−100%×(LumSample−LumLC)/(LumHC−LumLC). DMSO treated cells are employed as High Control (HC) and 2 μM of a known BRM/BRG1 degrader standard treated cells are employed as Low Control (LC).

HiBiT-BRM = target: T2, HiBiT-BRM (Homo sapiens, UniProt P51531); assay: HiBiT-BRM cell-based degradation assay (Nano-Glo HiBiT Lytic Detection); conditions: HeLa cells expressing HiBiT-BRM, 24 h; for DC50: read-out: BRM HiBit Degradation IC50
T2 construct: expressed in transfected cells
Description: as §1, §2

T2 sequence (P51531 whole entry): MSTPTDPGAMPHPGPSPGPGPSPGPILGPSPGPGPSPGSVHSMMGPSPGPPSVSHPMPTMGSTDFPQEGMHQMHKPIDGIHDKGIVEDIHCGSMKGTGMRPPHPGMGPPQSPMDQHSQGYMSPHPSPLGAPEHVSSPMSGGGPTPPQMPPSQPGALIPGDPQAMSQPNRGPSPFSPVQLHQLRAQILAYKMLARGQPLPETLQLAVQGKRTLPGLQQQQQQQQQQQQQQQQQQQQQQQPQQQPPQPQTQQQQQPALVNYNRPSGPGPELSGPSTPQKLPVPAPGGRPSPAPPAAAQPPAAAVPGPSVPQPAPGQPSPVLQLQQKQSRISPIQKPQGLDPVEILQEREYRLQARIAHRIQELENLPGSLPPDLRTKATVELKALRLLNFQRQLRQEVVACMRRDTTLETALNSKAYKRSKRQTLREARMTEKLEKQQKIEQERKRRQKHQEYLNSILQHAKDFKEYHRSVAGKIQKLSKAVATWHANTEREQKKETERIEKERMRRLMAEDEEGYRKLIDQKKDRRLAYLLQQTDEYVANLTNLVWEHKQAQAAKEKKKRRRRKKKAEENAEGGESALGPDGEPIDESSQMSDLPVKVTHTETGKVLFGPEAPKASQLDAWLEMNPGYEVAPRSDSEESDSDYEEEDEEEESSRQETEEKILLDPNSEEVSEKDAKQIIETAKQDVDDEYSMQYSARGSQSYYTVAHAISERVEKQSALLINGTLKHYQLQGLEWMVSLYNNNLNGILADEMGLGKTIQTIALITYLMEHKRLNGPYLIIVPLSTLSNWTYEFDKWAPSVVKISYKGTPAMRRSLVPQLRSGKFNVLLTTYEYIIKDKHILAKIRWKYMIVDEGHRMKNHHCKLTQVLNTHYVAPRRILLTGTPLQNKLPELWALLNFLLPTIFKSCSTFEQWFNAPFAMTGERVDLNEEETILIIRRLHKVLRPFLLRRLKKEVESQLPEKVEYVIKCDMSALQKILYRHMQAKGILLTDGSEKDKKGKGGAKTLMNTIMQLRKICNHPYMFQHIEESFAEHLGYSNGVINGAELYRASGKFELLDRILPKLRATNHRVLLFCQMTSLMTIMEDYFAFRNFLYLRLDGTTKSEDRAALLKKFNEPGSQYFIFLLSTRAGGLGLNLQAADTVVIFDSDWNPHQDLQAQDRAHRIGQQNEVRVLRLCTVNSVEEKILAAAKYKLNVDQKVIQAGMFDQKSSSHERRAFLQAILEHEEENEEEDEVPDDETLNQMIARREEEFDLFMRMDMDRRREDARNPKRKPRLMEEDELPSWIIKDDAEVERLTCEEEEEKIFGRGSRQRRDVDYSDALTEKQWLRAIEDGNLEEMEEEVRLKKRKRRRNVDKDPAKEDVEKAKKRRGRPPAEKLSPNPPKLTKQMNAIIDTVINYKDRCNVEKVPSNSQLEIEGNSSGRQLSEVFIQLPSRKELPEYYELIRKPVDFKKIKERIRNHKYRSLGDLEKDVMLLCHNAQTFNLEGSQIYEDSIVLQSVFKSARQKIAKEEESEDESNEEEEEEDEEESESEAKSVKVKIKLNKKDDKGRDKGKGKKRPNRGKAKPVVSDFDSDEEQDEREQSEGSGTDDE
T1 sequence (P51532 whole entry): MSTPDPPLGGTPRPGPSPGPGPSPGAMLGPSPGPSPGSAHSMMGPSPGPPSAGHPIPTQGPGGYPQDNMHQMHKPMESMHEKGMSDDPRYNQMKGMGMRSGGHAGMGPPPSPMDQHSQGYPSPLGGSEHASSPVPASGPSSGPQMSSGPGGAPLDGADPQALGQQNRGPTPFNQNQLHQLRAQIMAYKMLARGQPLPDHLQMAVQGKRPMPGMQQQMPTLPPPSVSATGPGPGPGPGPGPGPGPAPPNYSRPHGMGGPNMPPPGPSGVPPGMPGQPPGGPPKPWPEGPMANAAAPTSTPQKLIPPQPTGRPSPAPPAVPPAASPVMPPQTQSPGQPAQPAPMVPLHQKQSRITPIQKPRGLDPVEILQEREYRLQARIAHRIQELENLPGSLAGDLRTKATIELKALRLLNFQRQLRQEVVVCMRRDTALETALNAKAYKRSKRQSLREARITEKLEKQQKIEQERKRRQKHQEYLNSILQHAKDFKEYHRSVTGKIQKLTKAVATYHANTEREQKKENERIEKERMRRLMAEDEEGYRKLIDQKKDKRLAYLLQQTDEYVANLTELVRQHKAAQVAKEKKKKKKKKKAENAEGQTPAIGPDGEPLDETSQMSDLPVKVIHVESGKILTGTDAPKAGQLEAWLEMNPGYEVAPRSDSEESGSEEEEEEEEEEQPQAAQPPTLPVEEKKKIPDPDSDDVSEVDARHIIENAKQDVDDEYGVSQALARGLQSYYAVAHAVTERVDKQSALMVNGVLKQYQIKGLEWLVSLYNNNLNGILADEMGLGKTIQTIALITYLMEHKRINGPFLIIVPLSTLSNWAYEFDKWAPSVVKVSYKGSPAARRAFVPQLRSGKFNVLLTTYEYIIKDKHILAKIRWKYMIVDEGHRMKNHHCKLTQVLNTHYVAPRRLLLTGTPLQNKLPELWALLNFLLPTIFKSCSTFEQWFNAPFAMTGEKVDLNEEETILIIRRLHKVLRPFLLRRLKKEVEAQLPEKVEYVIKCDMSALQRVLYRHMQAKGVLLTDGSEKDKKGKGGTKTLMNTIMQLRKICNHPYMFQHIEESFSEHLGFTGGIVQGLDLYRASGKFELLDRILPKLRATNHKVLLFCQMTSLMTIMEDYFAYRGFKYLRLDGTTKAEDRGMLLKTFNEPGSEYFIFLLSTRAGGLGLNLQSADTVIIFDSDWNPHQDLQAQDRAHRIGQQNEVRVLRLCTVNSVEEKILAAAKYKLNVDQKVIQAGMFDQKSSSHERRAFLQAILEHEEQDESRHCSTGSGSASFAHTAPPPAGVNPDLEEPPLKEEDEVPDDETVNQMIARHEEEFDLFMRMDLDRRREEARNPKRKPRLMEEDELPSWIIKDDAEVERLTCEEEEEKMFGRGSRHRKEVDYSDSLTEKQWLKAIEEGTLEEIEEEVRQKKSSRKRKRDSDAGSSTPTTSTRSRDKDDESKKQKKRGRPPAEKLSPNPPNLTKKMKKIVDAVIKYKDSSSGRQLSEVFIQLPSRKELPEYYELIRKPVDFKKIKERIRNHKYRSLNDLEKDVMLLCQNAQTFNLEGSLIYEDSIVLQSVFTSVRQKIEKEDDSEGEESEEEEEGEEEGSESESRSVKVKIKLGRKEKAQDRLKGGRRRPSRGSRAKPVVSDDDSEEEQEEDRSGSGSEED

In the case of Cc1ncsc1-c1ccc(CNC(=O)[C@@H]2C[C@@H](O)CN2C(=O)[C@@H](NC(=O)CCCCC(=O)NCc2ccc(CCOc3cc(-c4ccccc4O)nnc3N)cc2)C(C)(C)C)cc1 [Compound 27, N′-[[4-(2-[[3-amino-6-(2-hydroxyphenyl)pyridazin-4-yl]oxy]ethyl)phenyl]methyl]-N-[(2S)-1-[(2S,4R)-4-hydroxy-2-([[4-(4-methyl-1,3-thiazol-5-yl)phenyl]methyl]carbamoyl)pyrrolidin-1-yl]-3,3-dimethyl-1-oxobutan-2-yl]hexanediamide], the DC50 (HiBit-BRG1) is reported as > 1 µM, the Dmax (HiBit-BRG1) is reported as < 50% and the “BRM HiBit Degradation Maximum (%)” value (HiBiT-BRM) is reported as “A (“A” indicates maximum degradation ≥75%)”. For the same molecule, the DC50 (HiBiT-BRM) was > 1 µM.
With Cc1ncsc1-c1ccc(CNC(=O)[C@@H]2C[C@@H](O)CN2C(=O)[C@@H](NC(=O)CCCCCCCCCC(=O)NCc2ccc(CCOc3cc(-c4ccccc4O)nnc3N)cc2)C(C)(C)C)cc1 [Compound 28, N′-[[4-(2-[[3-amino-6-(2-hydroxyphenyl)pyridazin-4-yl]oxy]ethyl)phenyl]methyl]-N-[(2S)-1-[(2S,4R)-4-hydroxy-2-([[4-(4-methyl-1,3-thiazol-5-yl)phenyl]methyl]carbamoyl)pyrrolidin-1-yl]-3,3-dimethyl-1-oxobutan-2-yl]undecanediamide] the DC50 (HiBit-BRG1) was > 1 µM, the Dmax (HiBit-BRG1) was < 50% and the “BRM HiBit Degradation Maximum (%)” value (HiBiT-BRM) was “A (“A” indicates maximum degradation ≥75%)”. The DC50 (HiBiT-BRM) was > 0.1 µM.
With Cc1ncsc1-c1ccc(CNC(=O)[C@@H]2C[C@@H](O)CN2C(=O)[C@@H](NC(=O)CCC(=O)NCc2ccc(CCOc3cc(-c4ccccc4O)nnc3N)cc2)C(C)(C)C)cc1 [Compound 29, N′-[[4-(2-[[3-amino-6-(2-hydroxyphenyl)pyridazin-4-yl]oxy]ethyl)phenyl]methyl]-N-[(2S)-1-[(2S,4R)-4-hydroxy-2-([[4-(4-methyl-1,3-thiazol-5-yl)phenyl]methyl]carbamoyl)pyrrolidin-1-yl]-3,3-dimethyl-1-oxobutan-2-yl]succinamide] the DC50 (HiBit-BRG1) was > 1 µM, the Dmax (HiBit-BRG1) was < 50% and the “BRM HiBit Degradation Maximum (%)” value (HiBiT-BRM) was “B (“B” indicates maximum degradation ≥50%)”. For the same molecule, the DC50 (HiBiT-BRM) was > 1 µM.
Cc1ncsc1-c1ccc(CNC(=O)[C@@H]2C[C@@H](O)CN2C(=O)[C@@H](NC(=O)CCCCCCC(=O)NCc2ccc(CCOc3cc(-c4ccccc4O)nnc3N)cc2)C(C)(C)C)cc1 [Compound 30] was tested, and the DC50 (HiBit-BRG1) was > 1 µM, the Dmax (HiBit-BRG1) was < 50% and the “BRM HiBit Degradation Maximum (%)” value (HiBiT-BRM) was “A (“A” indicates maximum degradation ≥75%)”. For the same molecule, the DC50 (HiBiT-BRM) was > 0.1 µM.
For Cc1ncsc1-c1ccc(CNC(=O)[C@@H]2C[C@@H](O)CN2C(=O)[C@@H](NC(=O)CCCCCCCCCCCC(=O)NCc2ccc(CCOc3cc(-c4ccccc4O)nnc3N)cc2)C(C)(C)C)cc1 [Compound 31, N1-(4-(2-((3-amino-6-(2-hydroxyphenyl)pyridazin-4-yl)oxy)ethyl)benzyl)-N13-((S)-1-((2S,4R)-4-hydroxy-2-((4-(4-methylthiazol-5-yl)benzyl)carbamoyl)pyrrolidin-1-yl)-3,3-dimethyl-1-oxobutan-2-yl)tridecanediamide], the DC50 (HiBit-BRG1) was > 1 µM, the Dmax (HiBit-BRG1) was < 50% and the “BRM HiBit Degradation Maximum (%)” value (HiBiT-BRM) was “B (“B” indicates maximum degradation ≥50%)”. The DC50 (HiBiT-BRM) was > 0.01 µM.
For Cc1ncsc1-c1ccc(CNC(=O)[C@@H]2C[C@@H](O)CN2C(=O)[C@@H](NC(=O)CCCCCCCCCCCCCCCC(=O)NCc2ccc(CCOc3cc(-c4ccccc4O)nnc3N)cc2)C(C)(C)C)cc1 [Compound 32, N1-(4-(2-((3-amino-6-(2-hydroxyphenyl)pyridazin-4-yl)oxy)ethyl)benzyl)-N17-((S)-1-((2S,4R)-4-hydroxy-2-((4-(4-methylthiazol-5-yl)benzyl)carbamoyl)pyrrolidin-1-yl)-3,3-dimethyl-1-oxobutan-2-yl)heptadecanediamide], the DC50 (HiBit-BRG1) was > 1 µM, the Dmax (HiBit-BRG1) was < 50% and the “BRM HiBit Degradation Maximum (%)” value (HiBiT-BRM) was “A (“A” indicates maximum degradation ≥75%)”. For the same molecule, the DC50 (HiBiT-BRM) was > 0.01 µM.
With Cc1ncsc1-c1ccc(CNC(=O)[C@@H]2C[C@@H](O)CN2C(=O)[C@@H](NC(=O)CCCCCCCC(=O)NCc2ccc(CCOc3cc(-c4ccccc4O)nnc3N)cc2)C(C)(C)C)cc1 [Compound 33] the DC50 (HiBit-BRG1) was > 0.1 µM, the Dmax (HiBit-BRG1) was > 50% and the “BRM HiBit Degradation Maximum (%)” value (HiBiT-BRM) was “A (“A” indicates maximum degradation ≥75%)”. For the same molecule, the DC50 (HiBiT-BRM) was > 0.1 µM.
